Test results as given in patent US7189714B2, “N-type calcium channel antagonists for the treatment of pain” (Astrazeneca AB, priority 2000, dated 2007).

target: N-type calcium channel (Homo sapiens, UniProt Q00975); assay: N-channel FLIPR assay (inhibition of K+-evoked calcium flux in differentiated IMR32 cells); format: cell-based; conditions: 80 mM K+ stimulus
Sequence (Q00975 whole entry): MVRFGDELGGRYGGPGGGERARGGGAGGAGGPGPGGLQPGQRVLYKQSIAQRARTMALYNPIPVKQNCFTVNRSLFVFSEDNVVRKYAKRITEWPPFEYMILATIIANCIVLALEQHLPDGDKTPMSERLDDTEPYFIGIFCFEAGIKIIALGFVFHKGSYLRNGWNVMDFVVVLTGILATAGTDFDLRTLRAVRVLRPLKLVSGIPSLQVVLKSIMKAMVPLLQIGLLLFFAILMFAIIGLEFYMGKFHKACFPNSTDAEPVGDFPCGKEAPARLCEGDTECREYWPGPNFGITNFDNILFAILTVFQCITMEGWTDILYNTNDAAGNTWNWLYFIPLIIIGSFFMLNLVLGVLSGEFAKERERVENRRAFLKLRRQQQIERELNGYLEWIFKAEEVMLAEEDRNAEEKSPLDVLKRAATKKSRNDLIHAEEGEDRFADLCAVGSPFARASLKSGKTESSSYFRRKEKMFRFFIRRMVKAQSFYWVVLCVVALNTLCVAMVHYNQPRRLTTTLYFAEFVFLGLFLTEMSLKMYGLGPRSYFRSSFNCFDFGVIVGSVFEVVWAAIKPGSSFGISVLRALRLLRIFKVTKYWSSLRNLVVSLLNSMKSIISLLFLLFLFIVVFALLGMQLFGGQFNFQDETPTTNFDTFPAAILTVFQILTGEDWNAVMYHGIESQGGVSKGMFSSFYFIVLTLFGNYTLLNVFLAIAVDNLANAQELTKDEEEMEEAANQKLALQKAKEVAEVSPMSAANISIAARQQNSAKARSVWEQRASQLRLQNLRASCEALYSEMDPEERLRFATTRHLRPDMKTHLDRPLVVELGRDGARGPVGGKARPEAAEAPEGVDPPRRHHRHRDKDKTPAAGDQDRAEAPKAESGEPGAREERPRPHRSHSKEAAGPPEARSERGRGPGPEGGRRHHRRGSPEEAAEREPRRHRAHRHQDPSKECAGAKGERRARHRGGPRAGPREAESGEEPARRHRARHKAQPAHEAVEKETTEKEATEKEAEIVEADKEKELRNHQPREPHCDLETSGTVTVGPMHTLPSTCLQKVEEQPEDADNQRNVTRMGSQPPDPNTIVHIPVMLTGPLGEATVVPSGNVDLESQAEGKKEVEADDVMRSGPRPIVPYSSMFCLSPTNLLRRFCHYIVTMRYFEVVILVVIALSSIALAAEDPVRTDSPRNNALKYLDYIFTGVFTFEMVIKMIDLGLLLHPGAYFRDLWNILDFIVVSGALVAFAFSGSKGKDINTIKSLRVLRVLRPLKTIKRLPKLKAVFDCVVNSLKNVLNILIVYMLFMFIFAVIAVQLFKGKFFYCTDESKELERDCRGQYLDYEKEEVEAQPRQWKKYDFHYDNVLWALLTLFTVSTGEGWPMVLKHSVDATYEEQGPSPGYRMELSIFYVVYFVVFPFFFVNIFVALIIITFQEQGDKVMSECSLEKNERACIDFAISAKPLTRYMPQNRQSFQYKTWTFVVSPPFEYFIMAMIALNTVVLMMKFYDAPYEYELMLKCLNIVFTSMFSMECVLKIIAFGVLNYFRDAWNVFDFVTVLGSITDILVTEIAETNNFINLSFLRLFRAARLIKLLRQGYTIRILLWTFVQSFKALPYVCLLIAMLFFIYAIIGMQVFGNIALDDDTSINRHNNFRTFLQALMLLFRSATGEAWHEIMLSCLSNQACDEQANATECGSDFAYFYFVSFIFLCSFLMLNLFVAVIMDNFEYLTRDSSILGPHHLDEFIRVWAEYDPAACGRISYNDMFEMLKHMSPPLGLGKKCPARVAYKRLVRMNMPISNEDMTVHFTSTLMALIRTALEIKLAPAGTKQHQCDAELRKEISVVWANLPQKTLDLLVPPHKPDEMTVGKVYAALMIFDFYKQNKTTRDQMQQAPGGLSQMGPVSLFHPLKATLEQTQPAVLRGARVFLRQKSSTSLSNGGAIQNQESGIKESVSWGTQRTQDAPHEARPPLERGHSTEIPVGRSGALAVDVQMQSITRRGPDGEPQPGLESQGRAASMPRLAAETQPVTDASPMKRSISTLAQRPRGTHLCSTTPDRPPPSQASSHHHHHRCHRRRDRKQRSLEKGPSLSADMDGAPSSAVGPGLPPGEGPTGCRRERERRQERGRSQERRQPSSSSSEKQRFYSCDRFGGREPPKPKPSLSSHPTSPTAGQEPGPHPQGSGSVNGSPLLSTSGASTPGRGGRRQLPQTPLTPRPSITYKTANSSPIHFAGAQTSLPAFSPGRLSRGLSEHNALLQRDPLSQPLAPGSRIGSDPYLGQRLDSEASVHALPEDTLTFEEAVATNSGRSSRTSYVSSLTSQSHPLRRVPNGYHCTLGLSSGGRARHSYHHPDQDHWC
Sequence (P54289 25-1103 partner): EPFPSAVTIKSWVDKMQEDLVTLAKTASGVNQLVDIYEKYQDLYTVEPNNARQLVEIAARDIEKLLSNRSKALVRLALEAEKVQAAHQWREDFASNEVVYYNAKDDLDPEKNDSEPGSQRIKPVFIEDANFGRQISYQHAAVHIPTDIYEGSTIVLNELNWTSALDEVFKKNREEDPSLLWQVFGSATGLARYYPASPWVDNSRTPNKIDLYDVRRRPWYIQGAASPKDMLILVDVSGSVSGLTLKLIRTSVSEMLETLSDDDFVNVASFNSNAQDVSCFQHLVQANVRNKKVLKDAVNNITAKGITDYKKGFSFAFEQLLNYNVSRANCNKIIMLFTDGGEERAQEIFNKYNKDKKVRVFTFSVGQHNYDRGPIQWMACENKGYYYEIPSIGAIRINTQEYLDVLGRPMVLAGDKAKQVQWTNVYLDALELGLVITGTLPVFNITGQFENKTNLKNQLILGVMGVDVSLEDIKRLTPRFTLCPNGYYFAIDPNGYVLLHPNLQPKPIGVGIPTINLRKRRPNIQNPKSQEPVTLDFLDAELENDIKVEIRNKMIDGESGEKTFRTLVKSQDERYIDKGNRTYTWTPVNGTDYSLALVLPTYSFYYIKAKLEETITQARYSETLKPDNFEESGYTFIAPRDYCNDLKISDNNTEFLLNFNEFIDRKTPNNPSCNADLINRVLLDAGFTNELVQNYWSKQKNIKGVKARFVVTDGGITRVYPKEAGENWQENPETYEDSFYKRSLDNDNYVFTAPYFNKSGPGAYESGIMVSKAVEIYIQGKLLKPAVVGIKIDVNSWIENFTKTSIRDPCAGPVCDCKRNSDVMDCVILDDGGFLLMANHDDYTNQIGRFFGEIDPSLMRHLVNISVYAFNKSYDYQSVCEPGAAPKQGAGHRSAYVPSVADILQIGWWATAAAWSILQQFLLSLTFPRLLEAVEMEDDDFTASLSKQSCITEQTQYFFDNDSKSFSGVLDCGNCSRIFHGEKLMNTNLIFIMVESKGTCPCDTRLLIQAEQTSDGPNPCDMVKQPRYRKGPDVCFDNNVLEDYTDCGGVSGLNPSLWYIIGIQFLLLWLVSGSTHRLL
Sequence (P54284 whole entry partner): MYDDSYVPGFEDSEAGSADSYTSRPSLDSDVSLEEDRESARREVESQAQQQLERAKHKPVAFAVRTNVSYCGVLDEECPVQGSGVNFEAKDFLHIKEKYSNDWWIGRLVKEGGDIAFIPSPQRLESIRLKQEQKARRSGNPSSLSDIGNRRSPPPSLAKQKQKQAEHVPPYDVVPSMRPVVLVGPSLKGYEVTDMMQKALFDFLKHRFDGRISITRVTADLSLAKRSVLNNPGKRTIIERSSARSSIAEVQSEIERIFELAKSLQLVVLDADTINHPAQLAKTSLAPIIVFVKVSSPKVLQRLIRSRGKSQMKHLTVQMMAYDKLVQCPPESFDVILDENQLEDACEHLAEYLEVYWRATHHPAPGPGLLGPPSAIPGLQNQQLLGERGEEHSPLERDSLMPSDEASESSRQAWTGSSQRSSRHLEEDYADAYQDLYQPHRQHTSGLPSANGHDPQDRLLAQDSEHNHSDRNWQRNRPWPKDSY

| IC50 | Molecule |
| --- | --- |
| 6.46 µM | 2-(3-Fluorophenyl)-N4-morpholin-4-yl-N6-cyclopropyl-quinoline-4,6-diamine [Example 32] |
| 36.3 µM | Nc1ccc2nc(-c3ccc(Cl)cc3)cc(N)c2c1 [Example 1, 2-(4-Chlorophenyl)-quinoline-4,6-diamine] |
| 10.5 µM | COc1ccccc1-c1cc(N)c2cc(N)ccc2n1 [Example 13, 2-(2-Methoxyphenyl)-quinoline-4,6-diamine] |
| 2.59 µM | Nc1ccc2nc(COc3ccccc3)cc(N)c2c1 [Example 14, 2-Phenoxymethyl-quinoline-4,6-diamine] |
| 3.18 µM | Nc1ccc2nc(-c3ccc(Br)cc3)cc(N)c2c1 [Example 20, 2-(4-Bromophenyl)-quinoline-4,6-diamine] |
| 2.54 µM | Nc1ccc2nc(-c3cccc(Br)c3)cc(N)c2c1 [Example 21, 2-(3-Bromophenyl)-quinoline-4,6-diamine] |
| 2.68 µM | CNc1ccc2nc(-c3cccc(F)c3)cc(N)c2c1 [Example 24, 2-(3-Fluorophenyl)-N6-methyl-quinoline-4,6-diamine] |
| 4.9 µM | CN(C)c1ccc2nc(-c3cccc(F)c3)cc(N(C)C)c2c1 [Example 26, 2-(3-Fluorophenyl)-N4,N4,N6,N6-tetramethyl-quinoline-4,6-diamine] |
| 5.55 µM | CN(C)c1cc(-c2cccc(F)c2)nc2ccc(N)cc12 [Example 27, 2-(3-Fluorophenyl)-N4,N4-dimethyl-quinoline-4,6-diamine] |
| 5.44 µM | CN(C)c1cc(-c2cccc(F)c2)nc2ccc(NC3CC3)cc12 [Example 29, 2-(3 -Fluorophenyl)-N4,N4-dimethyl-N6-cyclopropyl-quinoline-4,6-diamine] |
| 2.98 µM | CN(C)c1cc(-c2cccc(F)c2)nc2ccc(Nc3cccc(N)n3)cc12 [Example 40, 2-(3-Fluorophenyl)-N4,N4-dimethyl-N6-(6-amino-pyridin-2-yl)-quinoline-4,6-diamine] |
| 5.39 µM | Cc1c(Nc2ccc3nc(-c4cccc(F)c4)cc(N(C)C)c3c2)c(=O)n(-c2ccccc2)n1C [Example 44, 2-(3-Fluorophenyl)-N4,N4-dimethyl-N6-4-(1,5-dimethyl-2phenyl-1,2-dihydro-pyrazol-3-one)quinoline-4,6-diamine] |
| 7.74 µM | CN(C)c1cc(-c2cccc(F)c2)nc2ccc(NC3CCC3)cc12 [Example 48, 2-(3-Fluorophenyl)-N4,N4-dimethyl-N6-cyclobutyl-quinoline-4,6-diamine] |
| 5.88 µM | CN(C)c1cc(-c2cccc(F)c2)nc2ccc(NCC3CC3)cc12 [Example 49, 2-(3-Fluorophenyl)-N4,N4-dimethyl-N6-cyclopropylmethyl-quinoline-4,6-diamine] |
| 5.9 µM | CN(C)c1cc(-c2cccc(F)c2)nc2ccc(NC3CCCC3)cc12 [Example 50, 2-(3-Fluorophenyl)-N4,N4-dimethyl-N6-cyclopentyl-quinoline-4,6-diamine] |
| 1.75 µM | COCCNc1cc(-c2cccc(F)c2)nc2ccc(NC3CC3)cc12 [Example 54, 2-(3-Fluorophenyl)-N4-(2-methoxy-ethyl)-N6-cyclopropyl-quinoline-4,6-diamine] |
| 2.31 µM | CN(C)c1cc(-c2cccc(N3CCOCC3)c2)nc2ccc(NC3CC3)cc12 [Example 55, 2-(3-Morpholin-4-ylphenyl)-N4,N4-dimethyl-N6-cyclopropyl-quinoline-4,6-diamine] |

Second part, the molecule before the results:

| Molecule | IC50 |
| --- | --- |
| Nc1ccc2nc(-c3ccccc3)cc(N)c2c1 [Example 3, 2-Phenyl-quinoline-4,6-diamine] | 17.2 µM |
| Nc1ccc2nc(-c3ccccc3)cc(NCc3ccccc3)c2c1 [Example 4, 2-Phenyl-N4-benzyl-quinoline-4,6-diamine] | 3.54 µM |
| Nc1ccc2nc(-c3cccc(C(F)(F)F)c3)cc(N)c2c1 [Example 5, 2-(3-Trifluoromethylphenyl)-quinoline-4,6-diamine] | 5.83 µM |
| CN(C)c1cc(-c2ccccc2)nc2ccc(N)cc12 [Example 6, 2-Phenyl-N4,N4-dimethyl-quinoline-4,6-diamine] | 6.11 µM |
| CCCNc1cc(-c2ccccc2)nc2ccc(N)cc12 [Example 7, 2-Phenyl-N4-propyl-quinoline-4,6-diamine] | 1.99 µM |
| COc1cccc(-c2cc(N)c3cc(N)ccc3n2)c1 [Example 9, 2-(3-Methoxyphenyl)-quinoline-4,6-diamine] | 2.71 µM |
| Nc1ccc2nc(-c3cccc(F)c3)cc(N)c2c1 [Example 10, 2-(3-Fluorophenyl)-quinoline-4,6-diamine] | 3.81 µM |
| COc1ccc(-c2cc(N)c3cc(N)ccc3n2)cc1 [Example 11, 2-(4-Methoxyphenyl)-quinoline-4,6-diamine] | 6.91 µM |
| CCCCCc1cc(N)c2cc(N)ccc2n1 [Example 12, 2-Pentyl-quinoline-4,6-diamine] | 1.89 µM |
| Nc1ccc2nc(-c3ccccc3Cl)cc(N)c2c1 [Example 15, 2-(2-Chlorophenyl)-quinoline-4,6-diamine] | 4.13 µM |
| Nc1ccc2nc(-c3ccccc3F)cc(N)c2c1 [Example 16, 2-(2-Fluorophenyl)-quinoline-4,6-diamine] | 81.6 µM |
| Nc1ccc2nc(-c3ccc(C4CCCCC4)cc3)cc(N)c2c1 [Example 19, 2-(4-Cyclohexylphenyl)-quinoline-4,6-diamine] | 7.96 µM |
| CNc1ccc2nc(-c3ccccc3F)cc(N)c2c1 [Example 23, 2-(2-Fluorophenyl)-N6-methyl-quinoline-4,6-diamine] | 3.51 µM |
| Nc1ccc2nc(-c3cccc(Cl)c3)cc(N)c2c1 [Example 25, 2-(3-Chlorophenyl)-quinoline-4,6-diamine] | 4.83 µM |
| CNc1ccc2nc(-c3cccc(F)c3)cc(N(C)C)c2c1 [Example 28, 2-(3-Fluorophenyl)-N4,N4,N6-trimethyl-quinoline-4,6-diamine] | 3.81 µM |
| CC(C)Nc1ccc2nc(-c3cccc(F)c3)cc(N(C)C)c2c1 [Example 33, 2-(3-Fluorophenyl)-N4,N4-dimethyl-N6-isopropyl-quinoline-4,6-diamine] | 2.82 µM |
| CNc1ccc2nc(-c3cccc(F)c3)cc(NC)c2c1 [Example 37, 2-(3-Fluorophenyl)-N4,N6-dimethyl-quinoline-4,6-diamine] | 2.18 µM |
| CN(C)c1cc(-c2cccc(F)c2)nc2ccc(N3CCCC3)cc12 [Example 38, 2-(3-Fluorophenyl)-N4,N4-dimethyl-6-pyrrolidin-1-yl-quinolin-4-amine] | 9.15 µM |
| CNc1cc(-c2cccc(F)c2)nc2ccc(N)cc12 [Example 39, 2-(3-Fluorophenyl)-N4-methyl-quinoline-4,6-diamine] | 4.53 µM |
| CNc1cc(-c2cccc(F)c2)nc2ccc(NC3CC3)cc12 [Example 41, 2-(3-Fluorophenyl)-N4-methyl-N6-cyclopropyl-quinoline-4,6-diamine] | 1.8 µM |
| C=CCNc1ccc2nc(-c3cccc(F)c3)cc(N(C)C)c2c1 [Example 51, 2-(3-Fluorophenyl)-N4,N4-dimethyl-N6-allyl-quinoline-4,6-diamine] | 3.78 µM |
| CN(C)c1cc(-c2cccc(Cl)c2)nc2ccc(NC3CC3)cc12 [Example 53, 2-(3-Chlorophenyl)-N4,N4-dimethyl-N6-cyclopropyl-quinoline-4,6-diamine] | 7.19 µM |
| CN(C)c1cc(-c2cccc(N3CCOCC3)c2)nc2ccc(N)cc12 [Example 56, 2-(3-Morpholin-4-ylphenyl)-N4,N4-dimethyl-quinoline-4,6-diamine] | 6.38 µM |

test system: L-type calcium channel; assay: L-channel FLIPR assay (SK-N-SH cells); format: cell-based, human; conditions: L-channel reference on each plate, near IC50; read-out: reference concentration near IC50

| IC50 | Molecule |
| --- | --- |
| ~0.03 µM | CCOC(=O)C1=C(C)NC(C)=C(C(=O)OC)C1c1cccc([N+](=O)[O-])c1 (centres unmarked) [nitrendipine] |
